# Values quoted from earlier work as cited in patent US20120141611A1, “METHODS AND COMPOSITIONS USING ERGOTHIONEINE TO TREAT A VARIETY OF HEALTH RELATED FACTORS” (Oxis International Inc., priority 2010, published 2012).
# Where “and” joins values, the source holds several entries; their conditions need not be identical. Equal entries are not always repeated. Entries after “also recorded” stand apart in the source; their conditions may differ. Where two headings read alike, the source gives them in different places.
# Legend:
# [1] = into the organs, principally the liver; cited from earlier work
# [2] = physiological concentrations; cited from earlier work
# [3] = animal experimental model of diabetes; cited from earlier work
# [4] = cited from earlier work
# [5] = rats, 8 mg/100 gm body weight for 7 days pre-administration; cited from earlier work
# [6] = tested on: erythrocyte membrane; conditions: cited from earlier work
# [7] = cited from earlier work; remark: listed apart in the source
# [8] = Sheep; cited from earlier work
# [9] = molecular target: Cu/Zn SOD (Mus musculus, UniProt P08228); conditions: 12.5 mM; cited from earlier work
# Chain of Cu/Zn SOD (P08228 whole entry): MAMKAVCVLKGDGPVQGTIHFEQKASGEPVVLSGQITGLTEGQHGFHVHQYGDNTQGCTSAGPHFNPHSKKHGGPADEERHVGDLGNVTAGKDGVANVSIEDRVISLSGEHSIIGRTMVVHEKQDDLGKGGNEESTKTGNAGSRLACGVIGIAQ
# [10] = molecular target: T1, Mn-superoxide dismutase (Mus musculus, UniProt P09671); conditions: 12.5 mM; cited from earlier work
# T1 sequence (P09671 25-222): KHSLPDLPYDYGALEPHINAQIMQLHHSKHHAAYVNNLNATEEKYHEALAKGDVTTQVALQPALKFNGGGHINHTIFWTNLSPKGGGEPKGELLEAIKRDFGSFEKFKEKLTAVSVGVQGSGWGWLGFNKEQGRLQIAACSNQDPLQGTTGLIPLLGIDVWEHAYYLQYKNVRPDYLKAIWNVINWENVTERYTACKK
# [11] = tested on: A549 cells; conditions: cited from earlier work
# [12] = ergothioneine ingestion or administration, humans or animals; cited from earlier work
# [13] = molecular target: T2, glutathione reductase (Mus musculus, UniProt P47791); conditions: mouse liver cytosol fractions; cited from earlier work
# T2 construct: glutathione peroxidase and glutathione reductase activities in mouse liver cytosol fractions; from tissue; host or cells: mouse liver cytosol fractions (result quoted from the literature)
# T2 sequence (P47791 27-500): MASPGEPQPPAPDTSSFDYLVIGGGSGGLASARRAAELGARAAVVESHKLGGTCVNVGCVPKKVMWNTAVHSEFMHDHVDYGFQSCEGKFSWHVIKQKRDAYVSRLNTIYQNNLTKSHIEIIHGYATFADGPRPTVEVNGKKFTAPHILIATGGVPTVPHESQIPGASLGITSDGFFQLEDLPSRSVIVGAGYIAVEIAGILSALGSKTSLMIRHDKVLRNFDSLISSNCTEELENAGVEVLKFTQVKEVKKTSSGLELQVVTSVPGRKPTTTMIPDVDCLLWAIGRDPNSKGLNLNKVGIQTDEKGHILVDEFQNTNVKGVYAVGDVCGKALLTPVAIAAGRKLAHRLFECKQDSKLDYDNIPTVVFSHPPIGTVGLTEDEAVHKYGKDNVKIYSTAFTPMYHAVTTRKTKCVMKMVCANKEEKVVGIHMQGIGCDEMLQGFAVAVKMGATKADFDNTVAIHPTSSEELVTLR
# [14] = cited from earlier work; remark: listed apart in the source
# [15] = tested on: human platelets; conditions: human platelets in vitro; cited from earlier work
# [16] = animal studies, in the diet; cited from earlier work
# [17] = tested on: spermatozoa; conditions: cited from earlier work
# [18] = Rat, cited from earlier work
# [19] = tested on: human red cell cells; conditions: 1 mM, intact human red cells in vitro; cited from earlier work
# [20] = Fowl; cited from earlier work
# [21] = tested on: cerebellum; conditions: decerebrate rabbit; cited from earlier work
# [22] = physiological concentrations; cited from earlier work; remark: listed apart in the source
# [23] = cited from earlier work; remark: listed apart in the source
# [24] = tested on: erythrocytes; conditions: rats, administered in the diet; cited from earlier work
# [25] = Pig; cited from earlier work
# [26] = <1 nmol/gm liver versus dietary-augmented animals 1400 nmol/gm liver; cited from earlier work
# [27] = cited from earlier work; remark: listed apart in the source
# [28] = 225 g rat, controlled diet of ergothioneine supplementation
smiles,measurement,setting,value
"C[N+](C)(C)[C@@H](Cc1c[nH]c(=S)[nH]1)C(=O)[O-] [Ergothioneine, ergothioneine]",Disappearance from the plasma after intravenous administration,[1],rapid disappearance
same,Protection of API against HOCl-induced inactivation,[2],protect very efficiently
same,Developmental defects of embryos,[3],reverse the developmental defects to almost that of the control group
same,Concentration of LE in tissue,"[4]; Rabbit, Heart",2.7 mgs/100 gm fresh tissue
same,Concentration of LE in tissue,"[4]; Rabbit, Kidney",0.3 mgs/100 gm fresh tissue
same,Concentration of LE in tissue,"[4]; Rabbit, Liver",0.3 mgs/100 gm fresh tissue
same,Concentration of LE in tissue,"[4]; Rabbit, Lungs",0.3 mgs/100 gm fresh tissue
same,Concentration of LE in tissue,"[4]; Rabbit, RBC",10 mgs/100 gm fresh tissue
same,Concentration of LE in tissue,"[4]; Rabbit, Spleen",1.0 mgs/100 gm fresh tissue
same,Concentration of LE in tissue,"[4]; Rabbit, Testes",0.1 mgs/100 gm fresh tissue
same,Concentration of l-ergothioneine in the blood,[4]; Rabbit,1-10 mg/100 ml blood
same,Ergothioneine in optic nerves,[4]; optic nerves of the rabbit,30 µg/g
same,Hepatic injury after a single injection of ethionine,[5],inhibited
same,Hepatic lipid peroxide formation,[5],reduced
same,Amount directly penetrating the erythrocyte membrane,[6],< 1%
same,Concentration of l-ergothioneine in the blood,[7]; G. Pig,1-4 mg/100 ml blood
same,Ergothioneine in brain,[7]; brains of guinea-pigs,10 µg/g
same,Concentration of l-ergothioneine in the blood,[8],2-6 mg/100 ml blood
same,Cytosolic Cu/Zn SOD activity,[9],no increased activity
same,Mitochondrial Mn-superoxide dismutase activity,[10],nearly doubled
same,H2O2 and TNF-alpha imposed oxidative stress in IL-8-CAT reporter system,[11],inhibits
same,Deleterious / negative side effects,[12],No documented negative side effects; also recorded: no deleterious effects
same,Glutathione reductase activity,[13],markedly increased
same,Concentration of LE in the lens of the human eye,[14]; Hypermature cataract,60.8 mg LE/100 gm and 60.8 +/− 9.8 mg LE/100 gm
same,Concentration of LE in the lens of the human eye,[14]; Immature cortical cataract,79.6 mg LE/100 gm and 79.4 +/− 11.7 mg LE/100 gm
same,Concentration of LE in the lens of the human eye,[14]; Immature nuclear cataract,94.2 mg LE/100 gm and 94.2 +/− 7.3 mg LE/100 gm
same,Concentration of LE in the lens of the human eye,[14]; Mature cataract,71.7 mg LE/100 gm and 71.7 +/− 13.7 mg LE/100 gm
same,Concentration of LE in the lens of the human eye,[14]; Normal lens,115.7 mg LE/100 gm and 115.7 +/− 6.3 mg LE/100 gm
same,CO2 production from pyruvate,[15],increases in CO2 production from pyruvate
same,Production of lactate,[15],decreased production of lactate
same,Dietary level producing measurable changes in circulating whole blood levels,[16],"1 part per 100,000"
same,Effect on spermatozoa viability and survival under hydrogen peroxide,[17],counteracts the effects of hydrogen peroxide on spermatozoa viability and survival
same,Concentration of LE in tissue,[18]; Heart,1.5 mgs/100 gm fresh tissue
same,Concentration of LE in tissue,[18]; Intestine,0.6 mgs/100 gm fresh tissue
same,Concentration of LE in tissue,[18]; Kidney,4.3 mgs/100 gm fresh tissue
same,Concentration of LE in tissue,[18]; Liver,13.3 mgs/100 gm fresh tissue
same,Concentration of LE in tissue,[18]; Lungs,1.5 mgs/100 gm fresh tissue
same,Concentration of LE in tissue,[18]; Muscle,0.7 mgs/100 gm fresh tissue
same,Concentration of LE in tissue,[18]; Plasma,0.0 mgs/100 gm fresh tissue
same,Concentration of LE in tissue,[18]; RBC,10.4 mgs/100 gm fresh tissue
same,Concentration of LE in tissue,[18]; Spleen,1.1 mgs/100 gm fresh tissue
same,Concentration of LE in tissue,[18]; Stomach,0.4 mgs/100 gm fresh tissue
same,Concentration of LE in tissue,[18]; Testes,0.0 mgs/100 gm fresh tissue
same,Concentration of l-ergothioneine in the blood,[18],1-6 mg/100 ml blood
same,Glycolytic activity,[19],significant increase in glycolytic activity
same,Concentration of l-ergothioneine in the blood,[20],2-10 mg/100 ml blood
same,Action on the electrical activity of the cerebellum,[21],some excitatory action
same,Inactivation of hydroxyl radical,[22],potent diffusion-controlled inactivation
same,Sulfur label recovered in the urine as free sulfate,[23]; 35S-ergothioneine,35-65%
same,Dose recovered by urinary excretion,"[23]; bolus injected, in approximately 6 hours",60%
same,Share of urine products identified as ergothioneine,[23]; bolus injected,About one-third
same,Share of urine products identified as hercynine,[23]; bolus injected,About one-third
same,Erythrocyte lactate level on starvation,[24],prevented a 40% starvation-induced diminution
same,Concentration of l-ergothioneine in the blood,[25],3-27 mg/100 ml blood
same,Increase in hepatic lipid peroxidation in partially LE-deficient rats,[26],40%
same,Absorptive gain per day,[27]; [28],20 µg/day
same,Fecal and urine loss,[27]; [28],2 ug/per day
same,Fraction of dietary ergothioneine absorbed,"[27]; 225 gm rat, 20 ug/day in the diet (Mayumi et al.)",90%
same,Time to double the total body amount of ergothioneine,"[27]; rat, 89 ug ergothioneine/kg-day supplementation",approximately 2 months
same,Accumulation rate,"[27]; rat, from gain and loss per day",90%
